Results published in ChEMBL document CHEMBL1201862, “PubChem BioAssay data set” (2004).
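Briefly, cells in 96-well plates were exposed to five compound concentrations for 48 h, and endpoints were estimated by linear interpolation. At the GI50, growth is halved.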 Calls of active or inactive are those of the source. No stated cut-off is given here; in the data, active = GI50 up to about 1.1 µM and inactive = higher.

Tests used:
Assay in all cases: NCI anticancer screen, dose series, 48 h
786-0 = tested on: 786-0
A549 = tested on: A549
ACHN = tested on: ACHN
BT-549 = tested on: BT-549
CAKI-1 = tested on: CAKI-1
CCRF-CEM = tested on: CCRF-CEM
COLO 205 = tested on: COLO 205
DU-145 = tested on: DU-145
EKVX = tested on: EKVX
HCC 2998 = tested on: HCC 2998
HCT-116 = tested on: HCT-116
HCT-15 = tested on: HCT-15
HOP-62 = tested on: HOP-62
HOP-92 = tested on: HOP-92
HT-29 = tested on: HT-29
Hs-578T = tested on: Hs-578T
IGROV-1 = tested on: IGROV-1
K562 = tested on: K562
KM12 = tested on: KM12
M14 = tested on: M14
MCF7 = tested on: MCF7
MDA-MB-231 = tested on: MDA-MB-231
MDA-MB-435 = tested on: MDA-MB-435
MDA-N = tested on: MDA-N
MOLT-4 = tested on: MOLT-4
NCI-H23 = tested on: NCI-H23
NCI-H460 = tested on: NCI-H460
NCI-H522 = tested on: NCI-H522
NCI/ADR-RES = tested on: NCI/ADR-RES
OVCAR-3 = tested on: OVCAR-3
OVCAR-4 = tested on: OVCAR-4
OVCAR-5 = tested on: OVCAR-5
OVCAR-8 = tested on: OVCAR-8
PC-3 = tested on: PC-3
RPMI-8226 = tested on: RPMI-8226
RXF 393 = tested on: RXF 393
SF-268 = tested on: SF-268
SF-295 = tested on: SF-295
SF-539 = tested on: SF-539
SK-MEL-28 = tested on: SK-MEL-28
SK-MEL-2 = tested on: SK-MEL-2
SK-MEL-5 = tested on: SK-MEL-5
SK-OV-3 = tested on: SK-OV-3
SN12C = tested on: SN12C
SNB-19 = tested on: SNB-19
SR = tested on: SR
SW-620 = tested on: SW-620
U-251 = tested on: U-251
UACC-257 = tested on: UACC-257
UACC-62 = tested on: UACC-62
UO-31 = tested on: UO-31
A498 = tested on: A498
HL-60 = tested on: HL-60
LOX IMVI = tested on: LOX IMVI
Malme-3M = tested on: Malme-3M
NCI-H226 = tested on: NCI-H226
SNB-75 = tested on: SNB-75
T47D = tested on: T47D
TK-10 = tested on: TK-10

CC(=O)OCC1OC(N2C(=S)N[C@H]([C@@H](O)[C@H](O)[C@H](O)CO)[C@H]2O)C(OC(C)=O)C(OC(C)=O)C1OC(C)=O (some centres undefined)
GI50 (786-0): > 100 µM (inactive)
GI50 (A549): > 100 µM (inactive)
GI50 (ACHN): > 100 µM (inactive)
GI50 (BT-549): > 100 µM (inactive)
GI50 (CAKI-1): > 100 µM (inactive)
GI50 (CCRF-CEM): > 100 µM (inactive)
GI50 (COLO 205): > 100 µM (inactive)
GI50 (DU-145): > 100 µM (inactive)
GI50 (EKVX): > 100 µM (inactive)
GI50 (HCC 2998): > 100 µM (inactive)
GI50 (HCT-116): > 100 µM (inactive)
GI50 (HCT-15): > 100 µM
GI50 (HOP-62): > 100 µM (inactive)
GI50 (HOP-92): > 100 µM (inactive)
GI50 (HT-29): > 100 µM (inactive)
GI50 (Hs-578T): > 100 µM (inactive)
GI50 (IGROV-1): > 100 µM (inactive)
GI50 (K562): > 100 µM (inactive)
GI50 (KM12): > 100 µM (inactive)
GI50 (M14): > 100 µM (inactive)
GI50 (MCF7): > 100 µM (inactive)
GI50 (MDA-MB-231): > 100 µM (inactive)
GI50 (MDA-MB-435): > 100 µM (inactive)
GI50 (MDA-N): > 100 µM (inactive)
GI50 (MOLT-4): > 100 µM (inactive)
GI50 (NCI-H23): > 100 µM (inactive)
GI50 (NCI-H460): > 100 µM (inactive)
GI50 (NCI-H522): > 100 µM (inactive)
GI50 (NCI/ADR-RES): > 100 µM (inactive)
GI50 (OVCAR-3): > 100 µM (inactive)
GI50 (OVCAR-4): > 100 µM (inactive)
GI50 (OVCAR-5): > 100 µM (inactive)
GI50 (OVCAR-8): > 100 µM (inactive)
GI50 (PC-3): > 100 µM (inactive)
GI50 (RPMI-8226): > 100 µM (inactive)
GI50 (RXF 393): > 100 µM (inactive)
GI50 (SF-268): > 100 µM (inactive)
GI50 (SF-295): > 100 µM (inactive)
GI50 (SF-539): > 100 µM (inactive)
GI50 (SK-MEL-28): > 100 µM (inactive)
GI50 (SK-MEL-2): > 100 µM (inactive)
GI50 (SK-MEL-5): > 100 µM (inactive)
GI50 (SK-OV-3): > 100 µM (inactive)
GI50 (SN12C): > 100 µM (inactive)
GI50 (SNB-19): > 100 µM (inactive)
GI50 (SR): > 100 µM (inactive)
GI50 (SW-620): > 100 µM (inactive)
GI50 (U-251): > 100 µM (inactive)
GI50 (UACC-257): > 100 µM (inactive)
GI50 (UACC-62): > 100 µM (inactive)
GI50 (UO-31): > 100 µM (inactive)

COC(=O)C(C(=O)C(=O)NC1Nc2ccc(C)cc2S1)c1nc2ccc(Cl)cc2nc1O (centres undefined)
GI50 (786-0): > 100 µM (inactive)
GI50 (A498): > 100 µM (inactive)
GI50 (A549): > 100 µM (inactive)
GI50 (ACHN): > 100 µM (inactive)
GI50 (BT-549): > 100 µM (inactive)
GI50 (CAKI-1): > 100 µM (inactive)
GI50 (EKVX): 60.1 µM (inactive)
GI50 (HCC 2998): > 100 µM (inactive)
GI50 (HCT-116): > 100 µM (inactive)
GI50 (HCT-15): > 100 µM
GI50 (HL-60): > 100 µM (inactive)
GI50 (HOP-62): > 100 µM (inactive)
GI50 (HOP-92): 82.4 µM (inactive)
GI50 (HT-29): > 100 µM (inactive)
GI50 (Hs-578T): > 100 µM (inactive)
GI50 (IGROV-1): 40.6 µM (inactive)
GI50 (K562): > 100 µM (inactive)
GI50 (KM12): > 100 µM (inactive)
GI50 (LOX IMVI): > 100 µM (inactive)
GI50 (MCF7): > 100 µM (inactive)
GI50 (MDA-MB-231): > 100 µM (inactive)
GI50 (MDA-MB-435): > 100 µM (inactive)
GI50 (MDA-N): > 100 µM (inactive)
GI50 (Malme-3M): > 100 µM (inactive)
GI50 (NCI-H226): > 100 µM (inactive)
GI50 (NCI-H23): > 100 µM (inactive)
GI50 (NCI-H460): > 100 µM (inactive)
GI50 (NCI-H522): > 100 µM (inactive)
GI50 (NCI/ADR-RES): > 100 µM (inactive)
GI50 (OVCAR-3): > 100 µM (inactive)
GI50 (OVCAR-4): 74 µM (inactive)
GI50 (OVCAR-5): > 100 µM (inactive)
GI50 (OVCAR-8): > 100 µM (inactive)
GI50 (PC-3): > 100 µM (inactive)
GI50 (RPMI-8226): > 100 µM (inactive)
GI50 (RXF 393): > 100 µM (inactive)
GI50 (SF-268): > 100 µM (inactive)
GI50 (SF-295): > 100 µM (inactive)
GI50 (SF-539): > 100 µM (inactive)
GI50 (SK-MEL-28): > 100 µM (inactive)
GI50 (SK-MEL-2): > 100 µM (inactive)
GI50 (SK-MEL-5): > 100 µM (inactive)
GI50 (SK-OV-3): > 100 µM (inactive)
GI50 (SN12C): > 100 µM (inactive)
GI50 (SNB-19): 96.4 µM (inactive)
GI50 (SNB-75): > 100 µM (inactive)
GI50 (SW-620): > 100 µM (inactive)
GI50 (T47D): > 100 µM (inactive)
GI50 (TK-10): > 100 µM (inactive)
GI50 (U-251): > 100 µM (inactive)
GI50 (UACC-257): > 100 µM (inactive)
GI50 (UACC-62): > 100 µM (inactive)
GI50 (UO-31): > 100 µM (inactive)

COc1ccc(/C=C2\C[C@H]3[C@@H]4CC=C5C[C@@H](OC(C)=O)CC[C@]5(C)[C@H]4CC[C@]3(C)C2=O)cc1OC
GI50 (786-0): 38.7 µM (inactive)
GI50 (A498): 33 µM (inactive)
GI50 (A549): 28.5 µM (inactive)
GI50 (ACHN): 49.5 µM (inactive)
GI50 (BT-549): 63.1 µM (inactive)
GI50 (CAKI-1): 22.5 µM (inactive)
GI50 (CCRF-CEM): 37 µM (inactive)
GI50 (COLO 205): 24.3 µM (inactive)
GI50 (DU-145): > 100 µM (inactive)
GI50 (EKVX): 15.7 µM (inactive)
GI50 (HCC 2998): 58.3 µM (inactive)
GI50 (HCT-116): 38.8 µM (inactive)
GI50 (HCT-15): 68.9 µM
GI50 (HL-60): 16.7 µM (inactive)
GI50 (HOP-62): 0.815 µM (active)
GI50 (HOP-92): 31.7 µM (inactive)
GI50 (HT-29): 41.2 µM (inactive)
GI50 (Hs-578T): 58.6 µM (inactive)
GI50 (IGROV-1): > 100 µM (inactive)
GI50 (K562): 7.96 µM (inactive)
GI50 (KM12): 0.971 µM (active)
GI50 (LOX IMVI): 42.9 µM (inactive)
GI50 (M14): 66.4 µM (inactive)
GI50 (MCF7): 38.4 µM (inactive)
GI50 (MDA-MB-435): 48.4 µM (inactive)
GI50 (MDA-N): 39.9 µM (inactive)
GI50 (MOLT-4): 5.9 µM (inactive)
GI50 (Malme-3M): 34.7 µM (inactive)
GI50 (NCI-H226): 48.2 µM (inactive)
GI50 (NCI-H23): 70 µM (inactive)
GI50 (NCI-H460): 33.9 µM (inactive)
GI50 (NCI-H522): 23.5 µM (inactive)
GI50 (NCI/ADR-RES): 80.9 µM (inactive)
GI50 (OVCAR-3): > 100 µM (inactive)
GI50 (OVCAR-4): 63.4 µM (inactive)
GI50 (OVCAR-5): 41 µM (inactive)
GI50 (OVCAR-8): 40.6 µM (inactive)
GI50 (PC-3): 55.1 µM (inactive)
GI50 (RPMI-8226): 11.3 µM (inactive)
GI50 (RXF 393): 69.5 µM (inactive)
GI50 (SF-268): 86.7 µM (inactive)
GI50 (SF-295): 0.47 µM (active)
GI50 (SF-539): > 100 µM (inactive)
GI50 (SK-MEL-28): > 100 µM (inactive)
GI50 (SK-MEL-2): 31.1 µM (inactive)
GI50 (SK-MEL-5): 10.6 µM (inactive)
GI50 (SN12C): 42.3 µM (inactive)
GI50 (SNB-19): 54.8 µM (inactive)
GI50 (SNB-75): > 100 µM (inactive)
GI50 (SR): 24.7 µM (inactive)
GI50 (SW-620): > 100 µM (inactive)
GI50 (T47D): 35.7 µM (inactive)
GI50 (UACC-257): 19.8 µM (inactive)
GI50 (UACC-62): > 100 µM (inactive)
GI50 (UO-31): 12.2 µM (inactive)
